Patent publication US9597407B2, “Targeted antimicrobial moieties” (C3 Jian, Inc., priority 2009, dated 2017)
“Also recorded” adds a separate entry of the source.

Test system: bacteria
Test: Binding of targeting peptides to microorganisms (Table 3)
Details: preferably 1x PBS
[1] = microorganism bound by the targeting peptide, binding in aqueous buffers chosen by peptide solubility
[2] = peptide binding in aqueous buffers that varied depending on peptide solubility
[3] = peptide binding in aqueous buffers varied by peptide solubility
[4] = microorganism the targeting peptide binds, binding in aqueous buffers that varied with peptide solubility

PF-279 (SHIGFISISACLAVLLGIARLFVWTWVKFFA; Peptide with targeting and/or antimicrobial activity)
Target(s) [1]: S. mutans; also recorded: S. epidermidis; also recorded: M. luteus; also recorded: E. coli; also recorded: P. aeruginosa; also recorded: A. baumannii

PF-400 (VIAWKFRNKFENSGV; Peptide with targeting and/or antimicrobial activity)
Target(s) (microorganisms bound by the targeting peptide) [2]: S. epidermidis; also recorded: E. coli; also recorded: S. pneumoniae; also recorded: E. faecalis; also recorded: C. jeikeium

PF-367 (TKTPGTFTPGTGIQKTAVPL; Peptide with targeting and/or antimicrobial activity)
Target(s) [1]: B. subtilis

1T-70 (NRQAQGERAHGEQQG; Peptide with targeting and/or antimicrobial activity) [Peptide 1T-70]
Target(s) (microorganism bound by the targeting peptide) [3]: S. aureus; also recorded: C. jeikeium; also recorded: P. aeruginosa

PF-194 (MKGNKLATAHEQPVKNSAPPL; Peptide with targeting and/or antimicrobial activity)
Target(s) [1]: C. jeikeium

1T-266 (RAGTWLVVDEIR; Peptide with targeting and/or antimicrobial activity) [Peptide 1T-266]
Target(s) [4]: S. sanguinis

PF-195 (EMAEGSADDRLRKTPRDC; Peptide with targeting and/or antimicrobial activity)
Target(s) [1]: S. epidermidis; also recorded: M. luteus; also recorded: E. faecalis; also recorded: C. jeikeium

1T-89 (HEDDKRRGMSVEVLGFEVVQHEE; Peptide with targeting and/or antimicrobial activity) [Peptide 1T-89]
Target(s) (microorganism bound by the targeting peptide) [3]: S. mitis; also recorded: S. mutans

PF-S029 (TSDTQSQSPWLFDNADIVNIYPVQLMHSSDND; Peptide with targeting and/or antimicrobial activity)
Target(s) (microorganism bound by the targeting peptide) [2]: M. luteus; also recorded: P. mirabilis; also recorded: E. coli; also recorded: C. albicans; also recorded: C. jeikeium; also recorded: C. jejuni

PF-409 (DLVQSILSEFKKSG; Peptide with targeting and/or antimicrobial activity)
Target(s) (microorganisms bound by the targeting peptide) [2]: S. epidermidis and MRSA and C. jeikeium and C. jejuni

PF-C134 (NELMKYPATLTATATTPGIKYSHLCSVCL; Peptide with targeting and/or antimicrobial activity)
Target(s) (microorganism bound by the targeting peptide) [2]: A. naeslundii; also recorded: F. nucleatum; also recorded: P. gingivalis; also recorded: S. mutans; also recorded: T. denticola

1T-3 (VLGIAGGLDAYGELVGGN; Peptide with targeting and/or antimicrobial activity) [Peptide 1T-3]
Target(s) (microorganism bound by the targeting peptide) [3]: S. mutans; also recorded: S. gordonii

1T-92 (GQDEGQRRAGVGEGQGVDG; Peptide with targeting and/or antimicrobial activity) [Peptide 1T-92]
Target(s) (microorganism bound by the targeting peptide) [3]: S. mitis; also recorded: S. mutans

1T-272 (QLAPIDKQLKAVKKIAFYESESTAAKAVTVA; Peptide with targeting and/or antimicrobial activity) [Peptide 1T-272]
Target(s) [4]: F. nucleatum; also recorded: S. mutans; also recorded: S. oralis; also recorded: S. sanguinis

PF-C093 (EKLGTMV; Peptide with targeting and/or antimicrobial activity)
Target(s) (microorganism bound by the targeting peptide) [2]: A. naeslundii; also recorded: F. nucleatum; also recorded: S. mutans

1T-106 (DALRRSRSQGRRHR; Peptide with targeting and/or antimicrobial activity) [Peptide 1T-106]
Target(s) (microorganism bound by the targeting peptide) [3]: S. gordonii; also recorded: S. mitis; also recorded: S. mutans; also recorded: S. oralis; also recorded: S. salivarious

1T-10 (SPAGLPGDGDEA; Peptide with targeting and/or antimicrobial activity) [Peptide 1T-10]
Target(s) (microorganism bound by the targeting peptide) [3]: M. xanthus

PF-256 (EYFKQVYVKNEKIYSFWICKDLSPKEAAKRAEDILVKLK; Peptide with targeting and/or antimicrobial activity)
Target(s) [1]: S. epidermidis

1T-65 (HARAAVGVAELPRGAAVEVELIAAVRP; Peptide with targeting and/or antimicrobial activity) [Peptide 1T-65]
Target(s) (microorganism bound by the targeting peptide) [3]: S. mutans; also recorded: S. aureus; also recorded: S. epidermidis; also recorded: C. jeikeium; also recorded: C. xerosis; also recorded: C. striatum; also recorded: P. aeruginosa

PF-253 (VRDDDS; Peptide with targeting and/or antimicrobial activity)
Target(s) [1]: S. epidermidis; also recorded: M. luteus

1T-23 (PALVDLSNKEAVWAVLDDHS; Peptide with targeting and/or antimicrobial activity) [Peptide 1T-23]
Target(s) (microorganism bound by the targeting peptide) [3]: S. mutans; also recorded: P. aeruginosa

1T-237 (EDPVPNHFTLRRNKKEKPSKS; Peptide with targeting and/or antimicrobial activity) [Peptide 1T-237]
Target(s) [4]: S. sanguinis

1T-94 (DQVAHSGDMLVQARRRDS; Peptide with targeting and/or antimicrobial activity) [Peptide 1T-94]
Target(s) (microorganism bound by the targeting peptide) [3]: S. mitis; also recorded: S. mutans; also recorded: S. oralis

PF-169 (APGSAADSPRSRADD; Peptide with targeting and/or antimicrobial activity)
Target(s) [1]: S. epidermidis; also recorded: E. coli; also recorded: C. albicans; also recorded: E. faecalis; also recorded: C. jeikeium

PF-130 (LQRSDEESMPRRHEKYS; Peptide with targeting and/or antimicrobial activity)
Target(s) [1]: E. faecalis; also recorded: C. jeikeium; also recorded: C. jejuni

PF-225 (MNCASPEFKKLMELYK; Peptide with targeting and/or antimicrobial activity)
Target(s) [1]: S. epidermidis

PF-488 (YPNEQGHHKNNLKNIIIE; Peptide with targeting and/or antimicrobial activity)
Target(s) (microorganisms bound by the targeting peptide) [2]: S. mutans; also recorded: E. coli

PF-166 (SKAVSRKRSI; Peptide with targeting and/or antimicrobial activity)
Target(s) [1]: E. coli; also recorded: C. jeikeium

PF-C045 (FREGMGWPLSNEGSPTAPLPKHRNQV; Peptide with targeting and/or antimicrobial activity)
Target(s) (microorganism bound by the targeting peptide) [2]: A. naeslundii; also recorded: T. denticola

1T-60 (YLTSLGLDAAEQAQGLLTILKG; Peptide with targeting and/or antimicrobial activity) [Peptide 1T-60]
Target(s) (microorganism bound by the targeting peptide) [3]: S. aureus; also recorded: S. epidermidis; also recorded: C. jeikeium; also recorded: C. striatum; also recorded: P. aeruginosa

1T-188 (HRKDVYKK; Peptide with targeting and/or antimicrobial activity) [Peptide 1T-188]
Target(s) [4]: S. sanguinis

PF-S026 (TELKYNGEEYLLLTQRDILAVIEK; Peptide with targeting and/or antimicrobial activity)
Target(s) (microorganism bound by the targeting peptide) [2]: S. epidermidis and MRSA and C. jeikeium

1T-294 (YDKIADGVFKIGKRGVL; Peptide with targeting and/or antimicrobial activity) [Peptide 1T-294]
Target(s) [4]: T. denticola

1T-51 (GKPKRMPAEFIDGYGQALLAGA; Peptide with targeting and/or antimicrobial activity) [Peptide 1T-51]
Target(s) (microorganism bound by the targeting peptide) [3]: S. aureus; also recorded: P. aeruginosa

MKKLVAALAVIVILTGCVYDPVNYDKIHDQEFQDHLRQNG [PF-252]
Target(s) [1]: S. mutans

PF-679 (CRARFIRR; Peptide with targeting and/or antimicrobial activity)
Target(s) (microorganism bound by the targeting peptide) [2]: S. mutans; also recorded: E. coli

PF-210 (EREDGCDAMPLP; Peptide with targeting and/or antimicrobial activity)
Target(s) [1]: S. epidermidis and P. aeruginosa and C. albicans and MRSA and E. faecalis and C. jeikeium and C. jejuni

1T-80 (GGNLGPGFGVIIP; Peptide with targeting and/or antimicrobial activity) [Peptide 1T-80]
Target(s) (microorganism bound by the targeting peptide) [3]: S. pneumoniae

PF-155 (GRYGDDSKERQGRAQ; Peptide with targeting and/or antimicrobial activity)
Target(s) [1]: C. jeikeium

1T-297 (RSLRLNNALTKLPKLWYNRIKEAFYAYNDYDK; Peptide with targeting and/or antimicrobial activity) [Peptide 1T-297]
Target(s) [4]: A. naeslundii; also recorded: F. nucleatum; also recorded: T. denticola; also recorded: S. mitis; also recorded: S. mutans; also recorded: S. oralis

1T-6 (KFINGVLSQFVLERK; Peptide with targeting and/or antimicrobial activity) [Peptide 1T-6]
Target(s) (microorganism bound by the targeting peptide) [3]: S. mutans

1T-258 (TINIDDKVLDYLKKINSKAITIDLIGCAS; Peptide with targeting and/or antimicrobial activity) [Peptide 1T-258]
Target(s) [4]: A. naeslundii; also recorded: F. nucleatum; also recorded: P. gingivalis; also recorded: T. denticola; also recorded: S. mitis; also recorded: S. mutans; also recorded: S. oralis

PF-789 (PRGAQSGHG; Peptide with targeting and/or antimicrobial activity)
Target(s) (microorganism bound by the targeting peptide) [2]: Mycobacteria spp.

1T-67 (GQRQRLTCGRVSGCSEGPSREAAR; Peptide with targeting and/or antimicrobial activity) [Peptide 1T-67]
Target(s) (microorganism bound by the targeting peptide) [3]: S. aureus; also recorded: S. epidermidis; also recorded: C. jeikeium; also recorded: C. xerosis; also recorded: C. striatum; also recorded: P. aeruginosa
